According to the RepoRT retention time repository (doi:10.1016/j.jhazmat.2019.121712):

Assay: Thermo Scientific Acclaim RSLC 120 C18, 100 × 2.1 mm, 2.2 µm, 30 °C; A: 90% water + 10% methanol + 0.01% formic acid + 5 mM ammonium formate; B: methanol + 0.01% formic acid + 5 mM ammonium formate; gradient (min/%B) 0.1/1 3/39 14/99.9 16/99.9
Conditions: stereoisomer not certain

LC retention time | SMILES
4.66 min | O=C(O)c1ccccc1C(=O)Nc1ccc(S(=O)(=O)Nc2nccs2)cc1
1.36 min | NC(=O)c1ncn(C2OC(CO)C(O)C2O)n1 (stereo not drawn)
7.99 min | O=C1NCC(=O)N2C1Cc1c([nH]c3ccccc13)C2c1ccc2c(c1)OCO2 (stereo not drawn)
9.29 min | CCCCCCOC(=O)NC(=N)c1ccc(NCc2nc3cc(C(=O)N(CCC(=O)OCC)c4ccccn4)ccc3n2C)cc1
10.5 min | CCCOc1ccc(S(=O)(=O)N2CCN(CC)CC2)cc1-c1nc(=S)c2c([nH]1)c(CCC)nn2C
4.24 min | CCN(CC)CC(C)(C)COC(=O)c1ccc(N)cc1
5.63 min | CCC(=O)C1C(=O)CC(C(=O)O)CC1=O (stereo not drawn)
4.06 min | COc1cc(Cc2cnc(N)nc2N)cc(OC)c1OC
7.5 min | CCCc1nn(C)c2c(=O)[nH]c(-c3cc(C(=O)CN4CC(C)NC(C)C4)ccc3OCC)nc12 (stereo not drawn)
9.09 min | CCCc1nn(C)c2c(=O)[nH]c(-c3cc(C(=O)CN4CCN(CC)C(=O)C4)ccc3OCC)nc12
5.98 min | CCC1OC(=O)C(C)C(OC2CC(C)(OC)C(O)C(C)O2)C(C)C(OC2OC(C)CC(N(C)C)C2O)C(C)(O)CC(C)CN(C)C(C)C(O)C1(C)O (stereo not drawn)
10.7 min | CC(C)Cc1ccc(C(C)C(=O)O)cc1 (stereo not drawn)
7.89 min | CN1CCC(=C2c3ccccc3C=Cc3ccccc32)CC1
4.69 min | Cc1c(N)c(=O)n(-c2ccccc2)n1C
9.82 min | Cc1ccc(C(C)NC(=O)C(NC(=O)OC(C)C)C(C)C)cc1 (stereo not drawn)
6.76 min | CCOC(=O)C1=CC(OC(CC)CC)C(NC(C)=O)C(N)C1 (stereo not drawn)
4.44 min | COc1nccnc1NS(=O)(=O)c1ccc(N)cc1
7.93 min | CCOc1nc2cccc(C(=O)O)c2n1Cc1ccc(-c2ccccc2-c2nn[nH]n2)cc1
4.36 min | CCN1CCN(C(=O)NC(C(=O)NC2C(=O)N3C(C(=O)O)=C(CSc4nnnn4C)CSC23)c2ccc(O)cc2)C(=O)C1=O (stereo not drawn)
5.39 min | CCCN1CCCCC1C(=O)Nc1c(C)cccc1C (stereo not drawn)
7.26 min | OCCOCCN1CCN(C2=Nc3ccccc3Sc3ccccc32)CC1
4.13 min | Nc1ccc(S(=O)(=O)c2ccc(N)cc2)cc1
4.77 min | Nc1c2c(nc3ccccc13)CCCC2
8.85 min | CCN(CC)CCCN(c1ccccc1)C1Cc2ccccc2C1
5.86 min | CN(C)CCN(Cc1ccccc1)c1ccccn1
14.6 min | CCCCCCCCCCCC(CC1OC(=O)C1CCCCCC)OC(=O)C(CC(C)C)NC=O (stereo not drawn)

SMILES | LC retention time
COc1cc(CCN)c(OC)cc1C | 5.34 min
CC(C)(N)Cc1ccccc1 | 4.64 min
CN(C)CCc1ccc(O)cc1 | 2.28 min
CCOP(=O)(SC(C)CC)SC(C)CC (stereo not drawn) | 11.5 min
CNC(=O)ON=CC(C)(C)S(C)=O (stereo not drawn) | 3.5 min
Cc1nnc(-c2ccccc2)c(=O)n1N | 5.24 min
CC(C)(C)C(NC(=O)c1nn(CC2CCCCC2)c2ccccc12)C(N)=O (stereo not drawn) | 11.7 min
CCCCn1cc(C(=O)c2cccc3ccccc23)c2ccc(O)cc21 | 10.6 min
CCC(C)(CC)c1cc(NC(=O)c2c(OC)cccc2OC)on1 | 9.42 min
CCCC(NC)C(=O)c1ccc2c(c1)OCO2 (stereo not drawn) | 4.99 min
COP(=S)(OC)Oc1ccc([N+](=O)[O-])c(C)c1 | 9.92 min
COP(=O)(OC)OC(C)=CC(=O)N(C)C | 4.5 min
Cc1cc(C)cc(C(=O)N(NC(=O)c2ccc3c(c2C)CCCO3)C(C)(C)C)c1 | 9.93 min
C=C(C)C1Cc2c(ccc3c2OC2COc4cc(OC)c(OC)cc4C2C3=O)O1 (stereo not drawn) | 10.5 min
CNC(=O)N(C)c1nnc(C(C)(C)C)s1 | 7.25 min
CCCC(C)(COC(N)=O)COC(N)=O | 5.94 min
CCCCCn1cc(C(=O)c2cccc3ccccc23)c2ccc(O)cc21 | 11.2 min
